Experimental data published in PubChem BioAssay AID256 (DTP/NCI, 2004).
Values joined by “and” are separate entries in the source; they are usually repeats but may differ in a detail not shown here. Equal entries are not always repeated. Toxic doses and inconclusive results are not listed.

System: CD2F1 mice, L1210 leukemia ip, survival T/C
Assay: NCI In Vivo Anticancer Drug Screen. Data for tumor model L1210 Leukemia (intraperitoneal) in CD2F1 (CDF1) mice
Conditions: higher = longer survival
How it was run: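 Vehicle-treated tumor-bearing mice served as controls (C) for compound-treated mice (T). Reported figure is T divided by C.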

S=c1nc[nH]c2nc[nH]c12
T/C (endpoint: mean survival time, dose: 8.0 mg/kg/injection, schedule: Q03HX024 (ip), vehicle: alkali diluted with water): 155 % of control | T/C (endpoint: mean survival time, dose: 9.38 mg/kg/injection, schedule: Q01DX009 (ip), vehicle: alkali diluted with saline): 119 % of control | T/C (endpoint: mean survival time, dose: 10.0 mg/kg/injection, schedule: Q01DX005 (ip), vehicle: alkali diluted with saline): 113 % of control | T/C (endpoint: mean survival time, dose: 10.0 mg/kg/injection, schedule: Q01DX005 (ip), vehicle: alkali diluted with water): 98 % of control | T/C (endpoint: mean survival time, dose: 16.0 mg/kg/injection, schedule: Q03HX024 (ip), vehicle: alkali diluted with water): 160 % of control | T/C (endpoint: mean survival time, dose: 18.8 mg/kg/injection, schedule: Q01DX009 (ip), vehicle: alkali diluted with saline): 113 % of control | T/C (endpoint: mean survival time, dose: 19.4 mg/kg/injection, schedule: Q04DX003 (ip), vehicle: alkali diluted with saline): 101 % of control | T/C (endpoint: mean survival time, dose: 20.0 mg/kg/injection, schedule: Q01DX007 (ip), vehicle: saline): 116 % of control | T/C (endpoint: mean survival time, dose: 20.0 mg/kg/injection, schedule: Q01DX009 (ip), vehicle: alkali diluted with water): 114 % of control | T/C (endpoint: mean survival time, dose: 20.0 mg/kg/injection, schedule: Q01DX009 (ip), vehicle: other): 121 % of control | T/C (endpoint: mean survival time, dose: 20.0 mg/kg/injection, schedule: Q01DX009 (ip), vehicle: saline): 120 % of control | T/C (endpoint: mean survival time, dose: 20.0 mg/kg/injection, schedule: Q04DX002 (ip), vehicle: saline): 120 % of control | T/C (endpoint: mean survival time, dose: 28.13 mg/kg/injection, schedule: Q04DX003 (ip), vehicle: alkali diluted with saline): 95 % of control | T/C (endpoint: mean survival time, dose: 30.0 mg/kg/injection, schedule: Q## X006 (ip), vehicle: saline): 101 % of control | T/C (endpoint: mean survival time, dose: 37.5 mg/kg/injection, schedule: Q01DX009 (ip), vehicle: alkali diluted with saline): 122 % of control | T/C (endpoint: mean survival time, dose: 40.0 mg/kg/injection, schedule: Q01DX005 (ip), vehicle: saline): 150 % of control | T/C (endpoint: mean survival time, dose: 40.0 mg/kg/injection, schedule: Q01DX005 (ip), vehicle: sodium bicarbonate): 116 % of control | T/C (endpoint: mean survival time, dose: 40.0 mg/kg/injection, schedule: Q01DX009 (ip), vehicle: other): 166 % of control and 167 % of control | T/C (endpoint: mean survival time, dose: 40.0 mg/kg/injection, schedule: Q03DX003 (ip), vehicle: saline): 113 % of control | T/C (endpoint: mean survival time, dose: 40.0 mg/kg/injection, schedule: Q04DX003 (ip), vehicle: saline): 116 % of control | T/C (endpoint: mean survival time, dose: 60.0 mg/kg/injection, schedule: Q## X009 (ip), vehicle: saline): 122 % of control | T/C (endpoint: mean survival time, dose: 66.0 mg/kg/injection, schedule: Q04DX003 (ip), vehicle: saline): 163 % of control | T/C (endpoint: mean survival time, dose: 75.0 mg/kg/injection, schedule: Q01DX009 (ip), vehicle: alkali diluted with saline): 156 % of control and 170 % of control | T/C (endpoint: mean survival time, dose: 80.0 mg/kg/injection, schedule: Q01DX001 (ip), vehicle: alkali diluted with water): 120 % of control | T/C (endpoint: mean survival time, dose: 80.0 mg/kg/injection, schedule: Q01DX005 (ip), vehicle: saline with Tween-80): 168 % of control | T/C (endpoint: mean survival time, dose: 80.0 mg/kg/injection, schedule: Q01DX005 (ip), vehicle: saline): 170 % of control and 172 % of control | T/C (endpoint: mean survival time, dose: 80.0 mg/kg/injection, schedule: Q01DX005 (ip), vehicle: sodium bicarbonate): 157 % of control | T/C (endpoint: mean survival time, dose: 80.0 mg/kg/injection, schedule: Q01DX007 (ip), vehicle: saline): 158 % of control | T/C (endpoint: mean survival time, dose: 80.0 mg/kg/injection, schedule: Q01DX009 (ip), vehicle: alkali diluted with saline): 150 % of control | T/C (endpoint: mean survival time, dose: 80.0 mg/kg/injection, schedule: Q01DX009 (ip), vehicle: alkali diluted with water): 150 % of control and 158 % of control | T/C (endpoint: mean survival time, dose: 80.0 mg/kg/injection, schedule: Q01DX009 (ip), vehicle: other): 156 % of control | T/C (endpoint: mean survival time, dose: 80.0 mg/kg/injection, schedule: Q01DX009 (ip), vehicle: saline): 156 % of control | T/C (endpoint: mean survival time, dose: 80.0 mg/kg/injection, schedule: Q04DX002 (ip), vehicle: saline): 150 % of control | T/C (endpoint: mean survival time, dose: 90.0 mg/kg/injection, schedule: Q## X002 (ip), vehicle: saline): 153 % of control | T/C (endpoint: mean survival time, dose: 125.0 mg/kg/injection, schedule: Q01DX001 (ip), vehicle: alkali diluted with saline): 120 % of control | T/C (endpoint: mean survival time, dose: 150.0 mg/kg/injection, schedule: Q01DX009 (ip), vehicle: alkali diluted with saline): 113 % of control and 95 % of control | T/C (endpoint: mean survival time, dose: 150.0 mg/kg/injection, schedule: Q04DX003 (ip), vehicle: alkali diluted with saline): 155 % of control | T/C (endpoint: mean survival time, dose: 160.0 mg/kg/injection, schedule: Q01DX001 (ip), vehicle: alkali diluted with water): 152 % of control | T/C (endpoint: mean survival time, dose: 160.0 mg/kg/injection, schedule: Q01DX005 (ip), vehicle: saline with Tween-80): 175 % of control | T/C (endpoint: mean survival time, dose: 160.0 mg/kg/injection, schedule: Q01DX005 (ip), vehicle: saline): 171 % of control | T/C (endpoint: mean survival time, dose: 160.0 mg/kg/injection, schedule: Q01DX009 (ip), vehicle: alkali diluted with saline): 101 % of control | T/C (endpoint: mean survival time, dose: 160.0 mg/kg/injection, schedule: Q01DX009 (ip), vehicle: alkali diluted with water): 114 % of control and 88 % of control | T/C (endpoint: mean survival time, dose: 160.0 mg/kg/injection, schedule: Q01DX009 (ip), vehicle: other): 87 % of control | T/C (endpoint: mean survival time, dose: 165.0 mg/kg/injection, schedule: Q01DX001 (ip), vehicle: alkali diluted with saline): 122 % of control | T/C (endpoint: mean survival time, dose: 180.0 mg/kg/injection, schedule: Q## X002 (ip), vehicle: saline): 164 % of control | T/C (endpoint: mean survival time, dose: 180.0 mg/kg/injection, schedule: Q## X009 (ip), vehicle: saline): 154 % of control | T/C (endpoint: mean survival time, dose: 270.0 mg/kg/injection, schedule: Q## X006 (ip), vehicle: saline): 150 % of control | T/C (endpoint: mean survival time, dose: 270.0 mg/kg/injection, schedule: Q## X009 (ip), vehicle: saline): 153 % of control | T/C (endpoint: median survival time, dose: 15.6 mg/kg/injection, schedule: Q01DX009 (ip), vehicle: alkali diluted with saline): 116 % of control | T/C (endpoint: median survival time, dose: 18.0 mg/kg/injection, schedule: Q01DX009 (ip), vehicle: alkali diluted with saline): 118 % of control | T/C (endpoint: median survival time, dose: 20.0 mg/kg/injection, schedule: Q01DX005 (ip), vehicle: water): 187 % of control | T/C (endpoint: median survival time, dose: 25.0 mg/kg/injection, schedule: Q01DX009 (ip), vehicle: Klucel (hydroxypropylcellulose) (HPC)): 182 % of control | T/C (endpoint: median survival time, dose: 25.0 mg/kg/injection, schedule: Q01DX009 (ip), vehicle: alkali diluted with water): 122 % of control | T/C (endpoint: median survival time, dose: 25.9 mg/kg/injection, schedule: Q01DX009 (ip), vehicle: alkali diluted with saline): 124 % of control | T/C (endpoint: median survival time, dose: 26.0 mg/kg/injection, schedule: Q01DX009 (ip), vehicle: Klucel (hydroxypropylcellulose) (HPC)): 170 % of control | T/C (endpoint: median survival time, dose: 30.0 mg/kg/injection, schedule: Q01DX009 (ip), vehicle: alkali diluted with saline): 121 % of control | T/C (endpoint: median survival time, dose: 37.5 mg/kg/injection, schedule: Q04DX003 (ip), vehicle: Klucel (hydroxypropylcellulose) (HPC)): 154 % of control | T/C (endpoint: median survival time, dose: 40.0 mg/kg/injection, schedule: Q01DX005 (ip), vehicle: water): 310 % of control | T/C (endpoint: median survival time, dose: 40.0 mg/kg/injection, schedule: Q01DX009 (ip), vehicle: Klucel (hydroxypropylcellulose) (HPC)): 159 % of control | T/C (endpoint: median survival time, dose: 40.0 mg/kg/injection, schedule: Q01DX009 (ip), vehicle: alkali diluted with saline): 123 % of control | T/C (endpoint: median survival time, dose: 50.0 mg/kg/injection, schedule: Q01DX009 (ip), vehicle: Klucel (hydroxypropylcellulose) (HPC)): 259 % of control | T/C (endpoint: median survival time, dose: 50.0 mg/kg/injection, schedule: Q01DX009 (ip), vehicle: alkali diluted with water): 164 % of control | T/C (endpoint: median survival time, dose: 50.0 mg/kg/injection, schedule: Q04DX003 (ip), vehicle: alkali diluted with saline): 101 % of control | T/C (endpoint: median survival time, dose: 60.0 mg/kg/injection, schedule: Q01DX009 (ip), vehicle: alkali diluted with saline): 173 % of control | T/C (endpoint: median survival time, dose: 60.0 mg/kg/injection, schedule: Q01DX009 (ip), vehicle: water): 159 % of control | T/C (endpoint: median survival time, dose: 70.0 mg/kg/injection, schedule: Q01DX009 (ip), vehicle: alkali diluted with saline): 151 % of control and 158 % of control | T/C (endpoint: median survival time, dose: 72.0 mg/kg/injection, schedule: Q01DX009 (ip), vehicle: alkali diluted with saline): 150 % of control | T/C (endpoint: median survival time, dose: 75.0 mg/kg/injection, schedule: Q04DX003 (ip), vehicle: Klucel (hydroxypropylcellulose) (HPC)): 176 % of control | T/C (endpoint: median survival time, dose: 78.0 mg/kg/injection, schedule: Q04DX003 (ip), vehicle: other): 120 % of control | T/C (endpoint: median survival time, dose: 80.0 mg/kg/injection, schedule: Q01DX005 (ip), vehicle: Klucel (hydroxypropylcellulose) (HPC)): 158 % of control | T/C (endpoint: median survival time, dose: 80.0 mg/kg/injection, schedule: Q01DX005 (ip), vehicle: water): 164 % of control | T/C (endpoint: median survival time, dose: 80.0 mg/kg/injection, schedule: Q01DX009 (ip), vehicle: water): 158 % of control | T/C (endpoint: median survival time, dose: 83.3 mg/kg/injection, schedule: Q01DX009 (ip), vehicle: alkali diluted with saline): 160 % of control | T/C (endpoint: median survival time, dose: 100.0 mg/kg/injection, schedule: Q01DX001 (ip), vehicle: alkali diluted with saline): 117 % of control and 122 % of control | T/C (endpoint: median survival time, dose: 100.0 mg/kg/injection, schedule: Q01DX001 (ip), vehicle: alkali diluted with water): 157 % of control | T/C (endpoint: median survival time, dose: 100.0 mg/kg/injection, schedule: Q01DX005 (ip), vehicle: alkali diluted with water): 172 % of control | T/C (endpoint: median survival time, dose: 100.0 mg/kg/injection, schedule: Q01DX009 (ip), vehicle: Klucel (hydroxypropylcellulose) (HPC)): 211 % of control | T/C (endpoint: median survival time, dose: 100.0 mg/kg/injection, schedule: Q04DX003 (ip), vehicle: alkali diluted with saline): 116 % of control | T/C (endpoint: median survival time, dose: 120.0 mg/kg/injection, schedule: Q01DX009 (ip), vehicle: alkali diluted with saline): 154 % of control | T/C (endpoint: median survival time, dose: 150.0 mg/kg/injection, schedule: Q04DX003 (ip), vehicle: Klucel (hydroxypropylcellulose) (HPC)): 178 % of control | T/C (endpoint: median survival time, dose: 160.0 mg/kg/injection, schedule: Q01DX005 (ip), vehicle: Klucel (hydroxypropylcellulose) (HPC)): 164 % of control | T/C (endpoint: median survival time, dose: 200.0 mg/kg/injection, schedule: Q01DX005 (ip), vehicle: alkali diluted with water): 89 % of control | T/C (endpoint: median survival time, dose: 200.0 mg/kg/injection, schedule: Q01DX009 (ip), vehicle: Klucel (hydroxypropylcellulose) (HPC)): 154 % of control | T/C (endpoint: median survival time, dose: 200.0 mg/kg/injection, schedule: Q01DX009 (ip), vehicle: alkali diluted with water): 88 % of control | T/C (endpoint: median survival time, dose: 200.0 mg/kg/injection, schedule: Q04DX003 (ip), vehicle: alkali diluted with saline): 155 % of control | T/C (endpoint: median survival time, dose: 200.0 mg/kg/injection, schedule: Q04DX003 (ip), vehicle: other): 475 % of control | T/C (endpoint: median survival time, dose: 400.0 mg/kg/injection, schedule: Q01DX009 (ip), vehicle: Klucel (hydroxypropylcellulose) (HPC)): 152 % of control | T/C (endpoint: median survival time, dose: 600.0 mg/kg/injection, schedule: Q04DX003 (ip), vehicle: Klucel (hydroxypropylcellulose) (HPC)): 194 % of control
